Results reported in article PMC3188330 (2011).

What was measured:
[1] = molecular target: T1, UGT1A10 (Homo sapiens, UniProt Q9HAW8); experiment: glucuronidation rate at […]; assay type: cell-based
T1 sequence (Q9HAW8 26-530): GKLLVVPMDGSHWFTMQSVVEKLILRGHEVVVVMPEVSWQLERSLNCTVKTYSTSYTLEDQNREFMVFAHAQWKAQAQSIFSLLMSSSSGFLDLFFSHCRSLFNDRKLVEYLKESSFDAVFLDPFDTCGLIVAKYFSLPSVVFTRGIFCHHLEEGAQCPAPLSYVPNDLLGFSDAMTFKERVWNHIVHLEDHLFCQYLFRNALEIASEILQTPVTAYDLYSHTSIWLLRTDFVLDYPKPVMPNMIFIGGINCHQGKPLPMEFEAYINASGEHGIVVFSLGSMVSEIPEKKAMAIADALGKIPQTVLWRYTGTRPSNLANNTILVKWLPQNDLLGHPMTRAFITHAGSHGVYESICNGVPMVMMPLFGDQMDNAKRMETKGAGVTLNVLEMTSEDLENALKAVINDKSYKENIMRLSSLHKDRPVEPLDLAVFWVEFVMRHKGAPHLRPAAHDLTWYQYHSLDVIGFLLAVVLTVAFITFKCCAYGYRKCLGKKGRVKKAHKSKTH

[2] = molecular target: T1, UGT1A10; experiment: glucuronidation rate at […]; assay type: cell-based; remark: listed apart in the source

SMILES	glucuronidation rate at 100 μM (HPLC) [1]	glucuronidation rate at 500 μM (HPLC) [2]
Oc1cccc2ccccc12 [1-naphthol]	F93L catalyzed 1-naphthol glucuronidation at about twice the rate of the control UGT1A10	
COc1cc2ccc(=O)oc2cc1O [scopoletin]		majority of the mutants were higher than control, up to six fold the (normalized) rate of UGT1A10
